According to patent US20230190927A1, “ENPP1 INHIBITORS AND METHODS OF MODULATING IMMUNE RESPONSE” (Angarus Therapeutics, Inc., priority 2020, published 2023):

What was measured:
4T1 tumor [1] = assay: Tumor-associated dendritic cells in mouse 4T1 tumor model (FACS); settings: intratumoral 100 μL of 1 mM compound 1
Experimental: Seven- to nine-week-old female Balb/c mice (Jackson Laboratories) were inoculated with 1×10^6 4 T1-luciferase tumor cells suspended in 50 μL of PBS into the mammary fat pad. […] Anaesthetized animals were shielded with a 3.2 mm lead shield with a 15×20 mm aperture where the tumor was placed. […] On the next day, the tumor was extracted and incubated in RPMI+ 10% FBS with 20 μg/mL DNase I type IV (Sigma-Aldrich) and 1 mg/mL Collagenase from Clostridium histolyticum (Sigma-Aldrich) at 37° C. for 30 min. […] Cells were stained with Live/Dead fixable near-IR dead cell staining kit (Thermo Fisher Scientific), Fc-blocked for 10 min using TruStain fcX and subsequently antibody-stained with CD11c, CD45, and I-A/I-E (all Biolegend). Cells were analyzed using an SH800S cell sorter (Sony) or an LSR II (BD Biosciences).
Mean±SEM (n=2). **P=0.004 (Student's t test).

[2] = target: T1, purified recombinant mouse ENPP1 (Mus musculus, UniProt P06802); assay: ENPP1 activity assay using TMP-pNP as a substrate; type: biochemical; settings: TMP-pNP 2 μM, mouse ENPP1 0.5 nM, pH 7.5, room temperature
T1 sequence (P06802 1-906): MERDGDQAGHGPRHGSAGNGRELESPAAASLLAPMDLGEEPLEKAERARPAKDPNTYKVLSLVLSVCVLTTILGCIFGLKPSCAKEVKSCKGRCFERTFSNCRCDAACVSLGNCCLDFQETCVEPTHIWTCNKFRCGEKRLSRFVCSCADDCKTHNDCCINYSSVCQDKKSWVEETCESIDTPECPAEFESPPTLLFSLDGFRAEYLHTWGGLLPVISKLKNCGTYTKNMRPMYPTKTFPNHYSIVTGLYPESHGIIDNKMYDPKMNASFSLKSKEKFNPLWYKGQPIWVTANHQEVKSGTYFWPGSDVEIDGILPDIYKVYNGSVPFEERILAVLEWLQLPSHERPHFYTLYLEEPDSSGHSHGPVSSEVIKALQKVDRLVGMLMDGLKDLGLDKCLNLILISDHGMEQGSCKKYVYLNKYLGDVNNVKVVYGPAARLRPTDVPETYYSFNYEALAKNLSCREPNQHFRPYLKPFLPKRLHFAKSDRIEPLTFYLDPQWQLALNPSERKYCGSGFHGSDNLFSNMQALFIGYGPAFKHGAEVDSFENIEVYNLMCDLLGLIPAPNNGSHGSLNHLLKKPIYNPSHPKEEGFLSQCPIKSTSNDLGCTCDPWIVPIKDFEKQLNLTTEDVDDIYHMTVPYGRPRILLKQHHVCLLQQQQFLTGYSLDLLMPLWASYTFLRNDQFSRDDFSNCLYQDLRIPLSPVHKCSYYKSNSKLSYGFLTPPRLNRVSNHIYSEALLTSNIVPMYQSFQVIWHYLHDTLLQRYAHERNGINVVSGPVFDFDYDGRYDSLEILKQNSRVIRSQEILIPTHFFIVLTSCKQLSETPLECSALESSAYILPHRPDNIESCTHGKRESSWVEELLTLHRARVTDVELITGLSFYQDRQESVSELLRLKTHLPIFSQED
Experimental: Selected compounds of Table 1, Table 2 and other derivatives were prepared and assessed in an ENPP1 activity assay using thymidine monophosphate paranitrophenol (TMP-pNP) as a substrate. Enzyme reactions were prepared with TMP-pNP (2 μM), 5-fold dilutions of ENPP1 inhibitor, and purified recombinant mouse ENPP1 (0.5 nM) in 100 mM Tris, 150 mM NaCl, 2 mM CaCl2, 200 μM ZnCl2, pH 7.5 at room temperature. Reaction progress was monitored by measuring absorbance at 400 nm of paranitrophenolate produced by the reaction for 20 minutes.

[3] = target: T1, purified recombinant mouse ENPP1; assay: ENPP1 enzyme activity assay using 32P cGAMP as a substrate (TLC); type: biochemical
Experimental: Compounds were also assessed in an ENPP1 enzyme activity assay using ^32P cGAMP as a substrate. Radiolabeled ^32P cGAMP was synthesized by incubating unlabeled ATP (1 mM) and GTP (1 mM) doped with ^32P-ATP with 2 μM purified recombinant porcine cGAS in 20 mM Tris pH 7.5, 2 mM MgCl2, 100 μg/mL herring testes DNA) overnight at room temperature, and the remaining nucleotide starting materials were degraded with alkaline phosphatase for 4 h at 37° C. The probe ^32P-cGAMP (5 μM) was incubated with purified recombinant mouse ENPP1 (20 nM) or whole cell lysates in 100 mM Tris, 150 mM NaCl, 2 mM CaCl2, 200 μM ZnCl2, pH 7.5 at room temperature for 5 hours. To generate enzyme inhibition curves, 5-fold dilutions of ENPP1 inhibitor were included in the reaction. […] Plates were exposed on a phosphor screen (Molecular Dynamics) and imaged on a Typhoon 9400 and the ^32P signal was quantified using ImageJ.

4T1 tumor [4] = assay: 4T1 tumor model: IR with compound 1, cGAMP and/or anti-CTLA-4, tumor volume and survival; type: in vivo, mouse; settings: 20 Gy IR, single agent intratumorally on day 2, 4 and 7 after IR (100 μL of 100 μM compound 1 or 10 μg cGAMP)
Experimental: Tumor volumes were recorded every other day.

[5] = 32P-cGAMP 5 μM, mouse ENPP1 20 nM, pH 7.5, room temperature, 5 hours, read-out: IC50 values (cGAMP; μM)

Experimental for human CD14+ monocytes: Primary human peripheral blood mononucleocyte cells (PBMCs) were isolated by subjecting enriched buffy coat from whole blood to a Percoll density gradient. CD14^+ monocytes were isolated using CD14^+ MicroBeads (Miltenyi). CD14^+ monocytes were cultured in RMPI supplemented with 2% human serum and 100 U/mL penicillin-streptomycin. […] 24-26 hours following supernatant transfer, total RNA was extracted using Trizol (Thermo Fisher Scientific) and reverse transcribed with Maxima H Minus Reverse Transcriptase (Thermo Fisher Scientific). Real-time RT-PCR was performed in duplicate with AccuPower 2X Greenstar qPCR Master Mix (Bioneer) on a 7900HT Fast Real-Time PCR System (Applied Biosystems). Data were normalized to CD14 expression for each sample. Fold induction was calculated using ΔΔCt.
Supernatant from these cells was transferred to primary CD14^+ human PBMCs. IFNB1 mRNA levels were normalized to CD14 and the fold induction was calculated relative to untreated CD14^+ cells.

Row | SMILES | IC50 [2] | other results
1 | COc1cc2ncnc(N3CCC(CCP(=O)(O)O)CC3)c2cc1OC [Compound 1] | – | tumor associated CD11c+ population (4T1 tumor [1]; tumors pretreated with 20 Gy IR): increased the tumor associated CD11c^+ population; tumor-associated leukocyte compositions (4T1 tumor [1]; without IR, vs PBS control): did not change tumor-associated leukocyte compositions compared to the PBS control; extracellular cGAMP levels (human CD14+ monocytes; 293T cGAS ENPP1low cells with transient overexpression of ENPP1): rescued extracellular cGAMP levels; CD14+ IFNB1 expression (human CD14+ monocytes; supernatant of ENPP1-overexpressing 293T cGAS ENPP1low cells transferred to CD14+ monocytes): induced CD14^+ IFNB1 expression
2 | COc1ccc2c(N3CCC(CCP(=O)(O)O)CC3)ncnc2c1 [Compound 10] | < 0.005 µM | IC50 [3, 5]: 0.05 to 0.5 µM
3 | COc1ccc2c(N3CCC(CCP(=O)(O)O)CC3)nc(C)nc2c1 [Compound 12] | 0.005 to 0.05 µM | IC50 [3, 5]: 0.05 to 0.5 µM
4 | COc1ccc(OC)c2c(N3CCC(CCP(=O)(O)O)CC3)ncnc12 [Compound 16] | 0.5 to 5 µM | –
5 | COc1ccc2c(N3CCC(CCP(=O)(O)O)CC3)ncnc2c1OC [Compound 25] | 0.005 to 0.05 µM | –
6 | COc1cc2ncnc(N3CCC(COP(O)(O)=S)CC3)c2cc1OC [Compound 67] | 0.005 to 0.05 µM | –
7 | O=P(O)(O)CCC1CCN(c2ncnc3nc[nH]c23)CC1 [Compound 68] | > 5 µM | –
8 | COc1cc2ncnc(N3CCN(C(=O)CP(=O)(O)O)CC3)c2cc1OC [Compound 75] | 0.05 to 0.5 µM | IC50 [3, 5]: 0.5 to 5 µM
9 | COc1cccc2c(N3CCC(CCP(=O)(O)O)CC3)ncnc12 [Compound 76] | < 0.005 µM | IC50 [3]: 0.005 to 0.05 µM
10 | COc1cc2ncnc([C@H]3CC[C@@H](CCP(=O)(O)O)CC3)c2cc1OC [Compound 81] | 0.005 to 0.05 µM | –
11 | COc1cc2ncnc(N3CCC(CCP(O)(O)=S)CC3)c2cc1OC [Compound 83] | 0.05 to 0.5 µM | –
12 | COc1cc2ncnc(N3CCC(CCB(O)O)CC3)c2cc1OC [Compound 87] | 0.05 to 0.5 µM | –
13 | COc1cccc2c(N3CCC(CCP(O)(O)=S)CC3)ncnc12 [Compound 92] | < 0.005 µM | –
14 | Nc1nc2c(ncn2[C@@H]2O[C@@H]3COP(=O)(O)O[C@H]4[C@@H](O)[C@H](n5cnc6c(N)ncnc65)O[C@@H]4COP(=O)(O)O[C@@H]2[C@@H]3O)c(=O)[nH]1 [cGAMP, cyclic guanosine monophosphate-adenosine monophosphate] | – | tumor shrinkage effect over IR treatment (4T1 tumor [4]): had no effect over IR treatment

The next lines start with results.

Row | IC50 [2] | SMILES | other results
15 | 0.05 to 0.5 µM | O=P(O)(O)CCC1CCN(c2ncnc3cc(O)ccc23)CC1 [Compound 5] | –
16 | 0.05 to 0.5 µM | COc1cc(OC)c2ncnc(N3CCC(CCP(=O)(O)O)CC3)c2c1 [Compound 7] | –
17 | > 5 µM | CC(C)Oc1ccc2c(N3CCC(CCP(=O)(O)O)CC3)ncnc2c1 [Compound 11] | –
18 | 0.5 to 5 µM | O=P(O)(O)CCC1CCN(c2ncnc3cc4c(cc23)OCCO4)CC1 [Compound 13] | –
19 | < 0.005 µM | COc1ccc2c(N3CCC(CCP(=O)(O)O)CC3)nc(/C=C/c3cccnc3)nc2c1 [Compound 18] | IC50 [3, 5]: 0.05 to 0.5 µM
20 | 0.005 to 0.05 µM | COc1ccc2ncnc(N3CCC(CCP(=O)(O)O)CC3)c2c1 [Compound 19] | –
21 | 0.05 to 0.5 µM | COc1ccc2c(N3CCC(CCP(=O)(O)O)CC3)ncnc2c1OC [Compound 22] | –
22 | 0.5 to 5 µM | O=P(O)(O)CCC1CCN(c2ncnc3ccc(O)cc23)CC1 [Compound 23] | –
23 | 0.05 to 0.5 µM | Nc1ccc2c(N3CCC(CCP(=O)(O)O)CC3)ncnc2c1 [Compound 30] | –
24 | 0.05 to 0.5 µM | COc1cc2ccnc(N3CCC(CCP(=O)(O)O)CC3)c2cc1OC [Compound 38] | –
25 | > 5 µM | COc1ccc2c(N3CCN(CCP(=O)(O)O)CC3)ncnc2c1 [Compound 42] | –
26 | 0.05 to 0.5 µM | COc1cc2ncnc(N3CCC(COP(=O)(O)O)CC3)c2cc1OC [Compound 60] | –
27 | 0.5 to 5 µM | COc1cc2ncnc(N3CCC(CC(=O)NO)CC3)c2cc1OC [Compound 61] | –
28 | 0.5 to 5 µM | O=P(O)(O)CCC1CCN(c2ncnc3cccc(F)c23)CC1 [Compound 70] | –
29 | 0.05 to 0.5 µM | COc1cc2nccc(N3CCC(CCP(=O)(O)O)CC3)c2cc1OC [Compound 71] | –
30 | > 5 µM | CNC(=O)NCC1CCN(c2ncnc3cc(OC)c(OC)cc23)CC1 [Compound 73] | –
31 | 0.005 to 0.05 µM | COc1cc2ncnc([C@H]3CC[C@H](CCP(=O)(O)O)CC3)c2cc1OC [Compound 82] | –
32 | 0.05 to 0.5 µM | O=P(O)(O)CCC1CCN(c2ncnc3cc(Cl)ccc23)CC1 [Compound 84] | –
33 | < 0.005 µM | COc1cccc2c(N3CCC(COP(=O)(O)O)CC3)ncnc12 [Compound 86] | –
34 | 0.05 to 0.5 µM | COc1cc2ncnc(N3CCC(CP(=O)(O)O)CC3)c2cc1OC [Compound 88] | –
35 | 0.05 to 0.5 µM | Cc1nccn1-c1cc(N2CCC(CCP(=O)(O)O)CC2)ncn1 [Compound 93] | –
36 | 0.05 to 0.5 µM | Cc1cnc(C)n1-c1cc(N2CCN(CCP(=O)(O)O)CC2)ncn1 [Compound 103] | –
